This is an account of results in patent US20240116946A1 (Gilead Sciences, Inc., priority 2022, published 2024).

Where two headings read alike, the source gives them in different places. A value given as a limit tells only on which side of the number the result lay.

For test [1], the target named is recombinant SARS-CoV-2 Main protease (Mpro) (Severe acute respiratory syndrome coronavirus 2 (2019-nCoV) (SARS-CoV-2), UniProt P0DTD1). In words: Cov Mpro Biochemical IC50 Assay. The settings on record: recombinant SARS-CoV-2 Mpro, fluorogenic peptide substrate; read-out: MPro IC50.
The test system of the next test is SARS-CoV-2-NLuc. Kind of test: microbe, parasite or virus in culture. The format is cell-based, SARS Coronavirus 2.
[2] abbreviates: Severe acute respiratory syndrome coronavirus, 48 h, read-out: MPro EC50.

Take `Cc1ccnc(Cl)c1-c1cc2[nH]c(=O)n(-c3cncc4ccccc34)c(=O)c2s1` [Example 290]: the IC50 in test [1] came out at 159 nM. Further, in the test with SARS-CoV-2-NLuc (setting [2]), the EC50 was found to be 484 nM.
Taken in the same sequence, the figures for `O=c1[nH]c2cc(-c3c(Cl)cccc3-c3cn(CC(F)F)nn3)ccc2c(=O)n1-c1cncc2ccccc12` [Example 292] were 120 nM and 169 nM.
On to `O=c1[nH]c2cc(-c3c(Cl)cccc3-c3cn(CCO)nn3)ccc2c(=O)n1-c1cncc2ccccc12` [Example 293], for which the IC50 in test [1] was 67.8 nM. Besides, the EC50 in the test with SARS-CoV-2-NLuc (setting [2]) turned out to be 748 nM.
The corresponding values for `COc1cccc(-c2ccc3c(=O)n(-c4cncc5ccccc45)c(=O)[nH]c3c2)c1Cl` [Example 295] are 7430 nM and 13500 nM.
In the case of `O=c1[nH]c2cc(-c3cc(O)ccc3Cl)ccc2c(=O)n1-c1cncc2ccccc12` [Example 296], the IC50 in test [1] is 384 nM. The EC50 in the test on SARS-CoV-2-NLuc (setting [2]) was determined as 1430 nM.
The corresponding values for `CC(C)Oc1ccc(Cl)c(-c2ccc3c(=O)n(-c4cncc5ccccc45)c(=O)[nH]c3c2)c1` [Example 297] are 680 nM and 223 nM.
The corresponding values for `N#Cc1cncc(-c2cccc(Cl)c2-c2ccc3c(=O)n(-c4cncc5ccccc45)c(=O)[nH]c3c2)c1` [Example 298] are 6.29 nM and 10.8 nM.
As to `COc1cc(-c2ccc3c(=O)n(-c4cncc5ccccc45)c(=O)[nH]c3c2)c(Cl)cc1F` [Example 299], the IC50 in test [1] came out at 72.4 nM. In addition, in the test on SARS-CoV-2-NLuc (setting [2]), the EC50 worked out at 36.1 nM.
Taken in the same sequence, the figures for `CCOc1ccc(Cl)c(-c2ccc3c(=O)n(-c4cncc5ccccc45)c(=O)[nH]c3c2)c1` [Example 300] were 148 nM and 60.5 nM.
Taken in the same sequence, the figures for `COc1ccc(C)c(-c2ccc3c(=O)n(-c4cncc5ccccc45)c(=O)[nH]c3c2)c1` [Example 301] were 259 nM and 173 nM.
The corresponding values for `O=c1[nH]c2cc(-c3c(Cl)cccc3OCc3cccnn3)ccc2c(=O)n1-c1cncc2ccccc12` [Example 302] are 30.3 nM and 108 nM.
On to `COCc1ccc(Cl)c(-c2ccc3c(=O)n(-c4cncc5ccccc45)c(=O)[nH]c3c2)c1` [Example 303], for which, in test [1], the IC50 worked out at 270 nM. Also, in the test on SARS-CoV-2-NLuc (setting [2]), the EC50 came out at 365 nM.
The corresponding values for `O=C1COc2ccc(-c3cccc(Cl)c3-c3ccc4c(=O)n(-c5cncc6ccccc56)c(=O)[nH]c4c3)cc2N1` [Example 304] are 11.5 nM and 20.5 nM.
In the case of `O=c1[nH]c2cc(-c3c(Cl)cccc3-c3cnn4c3COCC4)ccc2c(=O)n1-c1cncc2ccccc12` [Example 305], the IC50 in test [1] was 8.8 nM. Besides, the EC50 with SARS-CoV-2-NLuc (setting [2]) was determined as 12.8 nM.
For `O=c1[nH]c2cc(-c3c(Cl)cccc3-c3cnn4c3CCCC4)ccc2c(=O)n1-c1cncc2ccccc12` [Example 306], the IC50 in test [1] was 8.21 nM. Also, in the test on SARS-CoV-2-NLuc (setting [2]), the EC50 was found to be 5.19 nM.
Taken in the same sequence, the figures for `CN1C(=O)CCc2cc(-c3cccc(Cl)c3-c3ccc4c(=O)n(-c5cncc6ccccc56)c(=O)[nH]c4c3)ccc21` [Example 307] were 16.9 nM and 10.4 nM.
The corresponding values for `COc1ccc(C#N)c(-c2ccc3c(=O)n(-c4cncc5ccccc45)c(=O)[nH]c3c2)c1` [Example 308, 2-[3-(4-isoquinolyl)-2,4-dioxo-1H-quinazolin-7-yl]-4-methoxy-benzonitrile] are 16.2 nM and 31.2 nM.
`COc1ccc(Cl)c(-c2cc3[nH]c(=O)n(-c4cncc5ccccc45)c(=O)c3cc2OC)c1` [Example 309]: in test [1], the IC50 stood at 56.9 nM. Further, the EC50 with SARS-CoV-2-NLuc (setting [2]) is 26.7 nM.
The corresponding values for `Cn1cc(-c2cccc(Cl)c2-c2ccc3c(=O)n(-c4cncc5ccccc45)c(=O)[nH]c3c2)nn1` [Example 310] are 55.4 nM and 140 nM.
Take `Cn1ncc(-c2cccc(Cl)c2-c2ccc3c(=O)n(-c4cncc5ccccc45)c(=O)[nH]c3c2)c1C(F)F` [Example 311]: the IC50 in test [1] came to 45.3 nM. For the same molecule, the EC50 in the test with SARS-CoV-2-NLuc (setting [2]) was 25 nM.
Take `COc1ccc(C#N)c(-c2cc3[nH]c(=O)n(-c4cncc5ccccc45)c(=O)c3cc2OC)c1` [Example 312]: in test [1], the IC50 came to 14.3 nM. Besides, the EC50 in the test on SARS-CoV-2-NLuc (setting [2]) turned out to be 20.4 nM.
Taken in the same sequence, the figures for `Cc1nnn(C)c1-c1cccc(Cl)c1-c1ccc2c(=O)n(-c3cncc4ccccc34)c(=O)[nH]c2c1` [Example 313] were 40.8 nM and 145 nM.
The corresponding values for `CN1CCOc2cc(-c3cccc(Cl)c3-c3ccc4c(=O)n(-c5cncc6ccccc56)c(=O)[nH]c4c3)ccc21` [Example 314] are 456 nM and 72.9 nM.
For the molecule `CN1C(=O)CC(C)(C)c2cc(-c3cccc(Cl)c3-c3ccc4c(=O)n(-c5cncc6ccccc56)c(=O)[nH]c4c3)ccc21` [Example 315], the IC50 in test [1] came out at 42 nM. The EC50 with SARS-CoV-2-NLuc (setting [2]) is 40.2 nM.
Taken in the same sequence, the figures for `COc1cc(-c2ccc3c(=O)n(-c4cncc5ccccc45)c(=O)[nH]c3c2)c(Cl)cc1Cl` [Example 316] were 1070 nM and 322 nM.
The corresponding values for `Cc1cc(-c2cccc(Cl)c2-c2ccc3c(=O)n(-c4cncc5ccccc45)c(=O)[nH]c3c2)cc(C#N)n1` [Example 317] are 11 nM and 4.97 nM.
Taken in the same sequence, the figures for `O=c1[nH]c2cc(-c3c(Cl)cccc3-c3ccnc(C4CC4)c3)ccc2c(=O)n1-c1cncc2ccccc12` [Example 318] were 8.65 nM and less than 3.42 nM.
Take `COc1cc(-c2ccc3c(=O)n(-c4cncc5ccccc45)c(=O)[nH]c3c2)c(C#N)cc1F` [Example 319]: the IC50 in test [1] was 10.7 nM. The EC50 with SARS-CoV-2-NLuc (setting [2]) was found to be 27.9 nM.
The corresponding values for `Cc1ncccc1-c1cccc(Cl)c1-c1ccc2c(=O)n(-c3cncc4ccccc34)c(=O)[nH]c2c1` [Example 320] are 16 nM and 14.1 nM.
The corresponding values for `Cc1nn(C2COC2)c(C)c1-c1cccc(Cl)c1-c1ccc2c(=O)n(-c3cncc4ccccc34)c(=O)[nH]c2c1` [Example 321] are 8.28 nM and 25.1 nM.
For `COc1ccc(Cl)c(-c2ccc3c(=O)n(-c4cncc5ccccc45)c(=O)[nH]c3c2)c1F` [Example 322], in test [1], the IC50 is 3530 nM. In the test on SARS-CoV-2-NLuc (setting [2]), the EC50 was determined as 1300 nM.
The corresponding values for `N#Cc1cc(F)c(F)cc1-c1ccc2c(=O)n(-c3cncc4ccccc34)c(=O)[nH]c2c1` [Example 323] are 112 nM and 557 nM.
Consider `COc1cc(-c2cc3[nH]c(=O)n(-c4cncc5ccccc45)c(=O)c3cc2OC)c(C#N)cc1F` [Example 324, 5-fluoro-2-[3-(4-isoquinolyl)-6-methoxy-2,4-dioxo-1H-quinazolin-7-yl]-4-methoxy-benzonitrile], for which the IC50 in test [1] was found to be 7.02 nM. Further, the EC50 in the test on SARS-CoV-2-NLuc (Severe acute respiratory syndrome coronavirus, 48 h; read-out: MPro EC50) came to 18.1 nM.
In the case of `O=c1[nH]c2cc(-c3c(Cl)cccc3-c3cnn4c3OCCC4)ccc2c(=O)n1-c1cncc2ccccc12` [Example 325], the IC50 in test [1] is 15.8 nM. Also, the EC50 with SARS-CoV-2-NLuc (setting [2]) came out at 27.9 nM.
Regarding `N#Cc1ccc(OC(F)F)cc1-c1ccc2c(=O)n(-c3cncc4ccccc34)c(=O)[nH]c2c1` [Example 326], the IC50 in test [1] amounted to 42.5 nM. Also, the EC50 in the test with SARS-CoV-2-NLuc (setting [2]) is 106 nM.
Taken in the same sequence, the figures for `O=c1[nH]c2cc(-c3c(Cl)cccc3-c3ccc4c(c3)CCS(=O)(=O)N4)ccc2c(=O)n1-c1cncc2ccccc12` [Example 327] were 13.3 nM and 96.3 nM.
